Test results as given in patent publication US10556907B2 (AbbVie Inc., priority 2015, dated 2020).
Like-named read-outs stand apart in the source and are kept apart here.

Assays:
Experiment in all cases: Method 1: intracellular Ca2+ release (FLIPR, Calcium 5) in recombinant CHO-K1 cells
Format in all cases: cell-based
human S1PR5 receptor = biological target: T1, human S1PR5 receptor (Homo sapiens, UniProt Q9H228)
T1 construct: host or cells: CHO-K1
Protocol: (§1) Agonistic activity was measured using two different methods, described below.
(§2) Method 1. Intracellular Ca^2+ Release
(§3) Agonist potency and intrinsic activity was assessed by measurement of intracellular Ca^2+ release. Recombinant CHO-K1 cells (Euroscreen, Brussels, Belgium) expressing human S1PR5, S1PR1, S1PR3 or S1PR4 receptors, aequorin, and GTP binding protein Gq/i5 were cultured using a medium containing nutrient mixture F-12 Ham (Sigma-Aldrich) with 10% FBS, and 100 μg/mL gentamicin and equilibrated at 5% CO2.
(§4) 15.000 cells in 20 μL medium were seeded into Biocoat poly-D-Lysine coated 384 well plates (Becton Dickinson #35-6663) and grown to 95% confluency after 24 h.
(§5) Culture medium was replaced by an assay buffer consisting of HBBS with Ca^2+ and Mg^2+ (Invitrogen #14025-050), 20 mmol/L Hepes (Sigma-Aldrich #H-3375), 2.5 mmol/L probenecid (Sigma-Aldrich #P-8761, and 0.1% BSA (Sigma-Aldrich #A-7030) pH 7.4. The Calcium 5 no-wash FLIPR assay kit (Molecular Devices #5000625) was performed as described in the kit instructions. Cells were incubated with Calcium 5 dye for 1 h at 37° C., 5% CO2 in the dark. After 45 min adaptation to RT assessment of agonist stimulation of intracellular Ca^2+ release was performed by addition of test compounds at concentrations obtained by serial dilution. Phospho-fingolimod was used as positive control. Antagonists were pre-incubated for 10 min with cells before addition of the agonist (phospho-fingolimod at EC80). Measurements were performed using a fluorometric imaging plate reader FLIPR® tetra (Molecular Devices). Agonist at the human S1P receptors were characterized by deducing EC50 (potency) values from a nonlinear fit to the measured fluorescence raw data after normalization to the reference agonist (phospho-fingolimod) curve.

human S1PR1 receptor = biological target: T2, human S1PR1 receptor (Homo sapiens, UniProt P21453); settings: (1): determined with method 1; read-out: S1P1 EC50
T2 construct: host or cells: CHO-K1
Protocol: as §1, §2, §3, §4, §5

human S1PR3 receptor = biological target: T3, human S1PR3 receptor (Homo sapiens, UniProt Q99500); settings: (1): determined with method 1; read-out: S1P3 EC50
T3 construct: host or cells: CHO-K1
Protocol: as §1, §2, §3, §4, §5

[1] = agonist potency, determined with method 1 (symbols A-D), read-out: S1P5 EC50 range

T1 sequence (Q9H228 whole entry): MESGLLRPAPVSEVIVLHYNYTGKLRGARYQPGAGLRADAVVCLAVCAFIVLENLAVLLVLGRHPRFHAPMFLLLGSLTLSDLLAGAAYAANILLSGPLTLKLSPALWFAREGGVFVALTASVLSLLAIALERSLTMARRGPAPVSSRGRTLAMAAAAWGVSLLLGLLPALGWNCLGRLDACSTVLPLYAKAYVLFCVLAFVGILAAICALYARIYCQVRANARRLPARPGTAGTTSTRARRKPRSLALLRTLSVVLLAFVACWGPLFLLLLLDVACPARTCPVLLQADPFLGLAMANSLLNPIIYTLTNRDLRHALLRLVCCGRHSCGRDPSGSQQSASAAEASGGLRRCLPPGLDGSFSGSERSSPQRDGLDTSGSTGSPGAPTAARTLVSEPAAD
T2 sequence (P21453 whole entry): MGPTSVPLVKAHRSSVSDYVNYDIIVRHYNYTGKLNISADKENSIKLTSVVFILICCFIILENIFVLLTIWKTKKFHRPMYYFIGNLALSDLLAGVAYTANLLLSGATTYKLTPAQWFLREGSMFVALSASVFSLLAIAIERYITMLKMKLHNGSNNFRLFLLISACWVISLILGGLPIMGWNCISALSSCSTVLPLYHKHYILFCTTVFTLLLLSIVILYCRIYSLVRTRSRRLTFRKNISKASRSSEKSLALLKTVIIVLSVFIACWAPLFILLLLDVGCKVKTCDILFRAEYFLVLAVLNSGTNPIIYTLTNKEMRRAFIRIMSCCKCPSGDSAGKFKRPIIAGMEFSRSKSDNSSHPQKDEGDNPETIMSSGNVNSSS
T3 sequence (Q99500 whole entry): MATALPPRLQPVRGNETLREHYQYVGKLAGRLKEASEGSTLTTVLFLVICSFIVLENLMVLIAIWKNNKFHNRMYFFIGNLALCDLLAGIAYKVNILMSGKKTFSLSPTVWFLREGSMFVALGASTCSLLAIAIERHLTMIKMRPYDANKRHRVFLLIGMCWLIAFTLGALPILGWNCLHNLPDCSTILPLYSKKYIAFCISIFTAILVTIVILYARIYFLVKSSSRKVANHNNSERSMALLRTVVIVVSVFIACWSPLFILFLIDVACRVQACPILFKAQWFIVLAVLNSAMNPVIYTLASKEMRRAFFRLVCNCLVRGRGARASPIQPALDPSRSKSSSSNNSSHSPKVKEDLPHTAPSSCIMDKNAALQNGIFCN

Structure (SMILES) | EC50 (human S1PR5 receptor; [1]) | EC50 (human S1PR1 receptor) | EC50 (human S1PR3 receptor) | EC50 (human S1PR5 receptor; (1): determined with method 1, read-out: S1P5 EC50 range (bound printed instead of class symbol))
Cc1cc(-c2ccc3c(n2)CCN(C2CC(C(=O)O)C2)C3)ccc1OCc1ccccc1 (stereo not shown) [Compound 117, 3-(2-(4-(benzyloxy)-3-methylphenyl)-7,8-dihydro-1,6-naphthyridin-6(5H)-yl)cyclobutanecarboxylic acid] | 0.1 to 1 µM | > 1 µM | > 1 µM | 
O=C(O)CCN1CCc2nc(-c3ccc(OCc4cccc(F)c4)cc3)ncc2C1 [Compound 68, 3-(2-(4-((3-fluorobenzyl)oxy)phenyl)-7,8-dihydropyrido[4,3-d]pyrimidin-6(5H)-yl)propanoic acid] | 0.01 to 0.1 µM | > 1 µM | > 1 µM | 
CC(CC(=O)O)N1CCc2nc(-c3ccc(OCc4cccc(Cl)c4)cc3)ncc2C1 (stereo not shown) [Compound 43, 3-(2-(4-((3-chlorobenzyl)oxy)phenyl)-7,8-dihydropyrido[4,3-d]pyrimidin-6(5H)-yl)butanoic acid] | 0.1 to 1 µM | > 1 µM | > 1 µM | 
CC(CC(=O)O)CN1CCc2nc(-c3ccc(OCc4ccccc4)cc3)ncc2C1 (stereo not shown) [Compound 21, 4-(2-(4-(benzyloxy)phenyl)-7,8-dihydropyrido[4,3-d]pyrimidin-6(5H)-yl)-3-methylbutanoic acid] | 0.01 to 0.1 µM | > 1 µM | > 1 µM | 
O=C(O)CCN1CCc2nc(-c3ccc(OCc4ccccc4OC(F)(F)F)cc3)ncc2C1 [Compound 84, 3-(2-(4-((2-(trifluoromethoxy)benzyl)oxy)phenyl)-7,8-dihydropyrido[4,3-d]pyrimidin-6(5H)-yl)propanoic acid] | 0.01 to 0.1 µM | > 1 µM | > 1 µM | 
Cc1cc(-c2ccc3c(n2)CCN(CCC(=O)O)C3)ccc1OCc1ccc(F)cc1 [Compound 168, 3-(2-(4-((4-fluorobenzyl)oxy)-3-methylphenyl)-7,8-dihydro-1,6-naphthyridin-6(5H)-yl)propanoic acid] | 0.01 to 0.1 µM | > 1 µM | > 1 µM | 
Cc1cc(COc2ccc(-c3ncc4c(n3)CCN(CCC(=O)O)C4)cc2)cc(OC(F)(F)F)c1 [Compound 95, 3-(2-(4-((3-methyl-5-(trifluoromethoxy)benzyl)oxy)phenyl)-7,8-dihydropyrido[4,3-d]pyrimidin-6(5H)-yl)propanoic acid] | < 0.01 µM | < 1 µM | > 1 µM | 
O=C(O)CCCN1CCc2nc(-c3ccc(OCc4cccc(F)c4)cc3)ccc2C1 [Compound 116, 4-(2-(4-((3-fluorobenzyl)oxy)phenyl)-7,8-dihydro-1,6-naphthyridin-6(5H)-yl)butanoic acid] | < 0.01 µM | > 1 µM | > 1 µM | 
CC(CN1CCc2nc(-c3ccc(OCc4ccccc4)c(Cl)c3)ccc2C1)C(=O)O (stereo not shown) [Compound 106, 3-(2-(4-(benzyloxy)-3-chlorophenyl)-7,8-dihydro-1,6-naphthyridin-6(5H)-yl)-2-methylpropanoic acid] | 0.01 to 0.1 µM | > 1 µM | > 1 µM | 
O=C(O)CCN1CCc2nc(-c3ccc(OCc4cccc(OC(F)(F)F)c4)cc3)ccc2C1 [Compound 151, 3-(2-(4-((3-trifluoromethoxybenzyl)oxy)phenyl)-7,8-dihydro-1,6-naphthyridin-6(5H)-yl)propanoic acid] | < 0.01 µM | < 1 µM | > 1 µM | 
CC(CC(=O)O)CN1CCc2nc(-c3ccc(OCc4ccc(Cl)cc4)cc3)ncc2C1 (single isomer, unassigned; (-)) [Compound 213, (−)-4-(2-(4-((4-chlorobenzyl)oxy)phenyl)-7,8-dihydropyrido[4,3-d]pyrimidin-6(5H)-yl)-3-methylbutanoic acid] | 0.01 to 0.1 µM | > 1 µM | > 1 µM | 
CC(CC(=O)O)N1CCc2nc(-c3ccc(OCc4ccccc4)cc3)ncc2C1 (stereo not shown) [Compound 36, 3-(2-(4-(benzyloxy)phenyl)-7,8-dihydropyrido[4,3-d]pyrimidin-6(5H)-yl)butanoic acid] | 0.1 to 1 µM | > 1 µM | > 1 µM | 
CC(CN1CCc2nc(-c3ccc(OCc4cccc(F)c4)cc3)ccc2C1)C(=O)O (stereo not shown) [Compound 109, 3-(2-(4-((3-fluorobenzyl)oxy)phenyl)-7,8-dihydro-1,6-naphthyridin-6(5H)-yl)-2-methylpropanoic acid] | < 0.01 µM | < 1 µM | > 1 µM | 
CCc1cccc(Cl)c1COc1ccc(-c2nc3c(cc2F)CN(CCC(=O)O)CC3)cc1 [Compound 196, 3-(2-(4-((2-chloro-6-ethylbenzyl)oxy)phenyl)-3-fluoro-7,8-dihydro-1,6-naphthyridin-6(5H)-yl)propanoic acid] | 0.01 to 0.1 µM | > 1 µM | > 1 µM | 
CC(C)Oc1ccc(-c2ncc3c(n2)CCN(CCC(=O)O)C3)cc1 [Compound 75, 3-(2-(4-isopropoxyphenyl)-7,8-dihydropyrido[4,3-d]pyrimidin-6(5H)-yl)propanoic acid] | 1 to 10 µM | > 1 µM | > 1 µM | 
CC(CN1CCc2nc(-c3ccc(OCc4ccc(F)cc4)c(Cl)c3)ccc2C1)C(=O)O (stereo not shown) [Compound 104, 3-(2-(4-((4-fluorobenzyl)oxy)-3-chlorophenyl)-7,8-dihydro-1,6-naphthyridin-6(5H)-yl)-2-methylpropanoic acid] | 0.01 to 0.1 µM | > 1 µM | > 1 µM | 
O=C(O)CC1(CN2CCc3nc(-c4ccc(OCc5ccc(Cl)cc5)cc4)ncc3C2)CC1 [Compound 286, 2-((4(2-(4-((4-chlorobenzyl)oxy)phenyl)-7,8-dihydropyrido[4,3-d]pyrimidin-6(5H)-yl)methyl)cyclopropyl)acetic acid] | 0.1 to 1 µM |  |  | 
O=C(O)CCN1CCc2nc(-c3ccc(OCc4ccccc4OC(F)F)cc3)ncc2C1 [Compound 90, 3-(2-(4-((2-(difluoromethoxy)benzyl)oxy)phenyl)-7,8-dihydropyrido[4,3-d]pyrimidin-6(5H)-yl)propanoic acid] | 0.01 to 0.1 µM | > 1 µM | > 1 µM | 
O=C(O)CCN1Cc2ccc(-c3cccc(OCc4cccc(F)c4)c3)nc2C1 [Compound 203, 3-(2-(3-((3-fluorobenzyl)oxy)phenyl)-5H-pyrrolo[3,4-b]pyridin-6(7H)-yl)propanoic acid] | 1 to 10 µM | > 1 µM | > 1 µM | 
O=C(O)CCCN1Cc2cnc(-c3ccc(OCc4ccccc4)cc3)nc2C1 [Compound 99, 4-(2-(4-(benzyloxy)phenyl)-5H-pyrrolo[3,4-d]pyrimidin-6(7H)-yl)butanoic acid] | 1 to 10 µM | > 1 µM | > 1 µM | 
O=C(O)CCCN1CCc2nc(-c3ccc(OCc4ccccc4)cc3)ccc2C1 [Compound 115, 4-(2-(4-(benzyloxy)phenyl)-7,8-dihydro-1,6-naphthyridin-6(5H)-yl)butanoic acid] | < 0.01 µM | > 1 µM | > 1 µM | 
CC(CC(=O)O)CN1Cc2cnc(-c3ccc(OCc4ccc(Cl)cc4)cc3)nc2CC12CCC2 (stereo not shown) [Compound 326, 4-(2′-(4-((4-chlorobenzyl)oxy)phenyl)-5′H-spiro[cyclobutane-1,7′-pyrido[4,3-d]pyrimidin]-6′(8′H)-yl)-3-methylbutanoic acid] |  |  | > 1 µM | > 1 µM
O=C(O)CC1(CN2CCc3nc(-c4ccc(OCc5cccc(Cl)c5)cc4)ncc3C2)CC1 [Compound 327, 2-((4(2-(4-((3-chlorobenzyl)oxy)phenyl)-7,8-dihydropyrido[4,3-d]pyrimidin-6(5H)-yl)methyl)cyclopropyl)acetic acid] | 1 to 10 µM |  |  | 
